From ChEMBL document CHEMBL4190377, “Design of Aminopeptidase N Inhibitors as Anti-cancer Agents” (J Med Chem, 2018)
≈ marks a conversion by molar mass, not a printed value. One block for each compound: values may come before it.

What was measured:
Glutamyl aminopeptidase [1] = target: T1, Glutamyl aminopeptidase (Homo sapiens, UniProt Q07075); experiment: Inhibition of APA (unknown origin) using GlubetaNA as substrate after 30 mins
Aminopeptidase B = target: T2, Aminopeptidase B (Rattus norvegicus, UniProt O09175); experiment: Inhibition of APB in rat testis using ArgbetaNA as substrate
T2 sequence (O09175 whole entry): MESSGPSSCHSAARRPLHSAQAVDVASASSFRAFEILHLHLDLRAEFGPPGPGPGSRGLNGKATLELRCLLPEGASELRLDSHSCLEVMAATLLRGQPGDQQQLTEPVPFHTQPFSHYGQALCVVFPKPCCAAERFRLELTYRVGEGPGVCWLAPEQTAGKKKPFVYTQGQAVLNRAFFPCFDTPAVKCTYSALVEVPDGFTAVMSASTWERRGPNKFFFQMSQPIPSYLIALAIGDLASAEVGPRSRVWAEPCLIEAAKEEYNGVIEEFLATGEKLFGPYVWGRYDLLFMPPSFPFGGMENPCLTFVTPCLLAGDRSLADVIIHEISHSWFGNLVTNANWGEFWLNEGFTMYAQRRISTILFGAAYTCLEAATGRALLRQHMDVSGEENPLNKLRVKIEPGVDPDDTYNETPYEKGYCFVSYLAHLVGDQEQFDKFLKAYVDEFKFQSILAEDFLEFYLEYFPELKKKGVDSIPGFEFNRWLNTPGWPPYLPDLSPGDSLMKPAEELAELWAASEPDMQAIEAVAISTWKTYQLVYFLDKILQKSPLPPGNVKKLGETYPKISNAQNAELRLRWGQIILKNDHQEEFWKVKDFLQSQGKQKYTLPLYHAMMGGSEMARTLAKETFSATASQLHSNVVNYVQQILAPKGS

Mus musculus = experiment: Increase in plasma vasopressin release in mouse at 100 ug administered as single dose by RIA; format: functional
[2] = Solubility in PBS; format: physicochemical
Aminopeptidase N [3] = target: T3, Aminopeptidase N (Homo sapiens, UniProt P15144)
T3 sequence (P15144 whole entry): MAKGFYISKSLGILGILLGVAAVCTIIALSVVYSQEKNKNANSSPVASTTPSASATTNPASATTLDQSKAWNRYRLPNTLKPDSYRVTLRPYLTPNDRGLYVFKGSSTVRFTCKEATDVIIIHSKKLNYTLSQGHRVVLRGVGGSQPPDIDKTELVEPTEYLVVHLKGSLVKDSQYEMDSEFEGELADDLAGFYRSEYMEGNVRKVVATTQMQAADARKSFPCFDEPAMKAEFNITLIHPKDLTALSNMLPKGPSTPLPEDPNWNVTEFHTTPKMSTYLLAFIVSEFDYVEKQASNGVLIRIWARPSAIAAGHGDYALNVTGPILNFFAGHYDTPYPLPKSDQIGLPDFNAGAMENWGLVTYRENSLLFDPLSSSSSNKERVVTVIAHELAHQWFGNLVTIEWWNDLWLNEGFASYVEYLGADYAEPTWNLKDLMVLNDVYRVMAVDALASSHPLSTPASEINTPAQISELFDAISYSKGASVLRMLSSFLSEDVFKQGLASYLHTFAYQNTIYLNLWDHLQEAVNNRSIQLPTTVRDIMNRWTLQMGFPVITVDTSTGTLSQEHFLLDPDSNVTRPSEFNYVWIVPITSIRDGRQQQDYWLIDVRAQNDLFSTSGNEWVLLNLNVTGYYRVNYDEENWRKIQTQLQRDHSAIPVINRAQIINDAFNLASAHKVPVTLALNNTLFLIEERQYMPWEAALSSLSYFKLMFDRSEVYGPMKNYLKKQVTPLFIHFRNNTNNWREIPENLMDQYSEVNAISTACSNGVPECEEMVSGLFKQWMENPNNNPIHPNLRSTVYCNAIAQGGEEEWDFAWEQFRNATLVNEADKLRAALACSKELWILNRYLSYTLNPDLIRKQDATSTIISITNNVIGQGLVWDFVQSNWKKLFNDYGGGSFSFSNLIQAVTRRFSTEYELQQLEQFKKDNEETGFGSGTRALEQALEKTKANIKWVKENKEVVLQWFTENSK
Description: Inhibition of APN (unknown origin)

Leucine aminopeptidase = target: T4, Leucine aminopeptidase (Sus scrofa, UniProt Q29571); experiment: Competitive inhibition of LAP in porcine kidney microsomes
T4 sequence (Q29571 whole entry): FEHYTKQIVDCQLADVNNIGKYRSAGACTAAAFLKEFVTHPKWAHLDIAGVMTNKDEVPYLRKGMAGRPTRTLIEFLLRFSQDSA

Aminopeptidase N [4] = target: T5, Aminopeptidase N (Sus scrofa, UniProt P15145); experiment: Inhibition of APN in porcine kidney using Ala-p-NA as substrate
T5 sequence (P15145 whole entry): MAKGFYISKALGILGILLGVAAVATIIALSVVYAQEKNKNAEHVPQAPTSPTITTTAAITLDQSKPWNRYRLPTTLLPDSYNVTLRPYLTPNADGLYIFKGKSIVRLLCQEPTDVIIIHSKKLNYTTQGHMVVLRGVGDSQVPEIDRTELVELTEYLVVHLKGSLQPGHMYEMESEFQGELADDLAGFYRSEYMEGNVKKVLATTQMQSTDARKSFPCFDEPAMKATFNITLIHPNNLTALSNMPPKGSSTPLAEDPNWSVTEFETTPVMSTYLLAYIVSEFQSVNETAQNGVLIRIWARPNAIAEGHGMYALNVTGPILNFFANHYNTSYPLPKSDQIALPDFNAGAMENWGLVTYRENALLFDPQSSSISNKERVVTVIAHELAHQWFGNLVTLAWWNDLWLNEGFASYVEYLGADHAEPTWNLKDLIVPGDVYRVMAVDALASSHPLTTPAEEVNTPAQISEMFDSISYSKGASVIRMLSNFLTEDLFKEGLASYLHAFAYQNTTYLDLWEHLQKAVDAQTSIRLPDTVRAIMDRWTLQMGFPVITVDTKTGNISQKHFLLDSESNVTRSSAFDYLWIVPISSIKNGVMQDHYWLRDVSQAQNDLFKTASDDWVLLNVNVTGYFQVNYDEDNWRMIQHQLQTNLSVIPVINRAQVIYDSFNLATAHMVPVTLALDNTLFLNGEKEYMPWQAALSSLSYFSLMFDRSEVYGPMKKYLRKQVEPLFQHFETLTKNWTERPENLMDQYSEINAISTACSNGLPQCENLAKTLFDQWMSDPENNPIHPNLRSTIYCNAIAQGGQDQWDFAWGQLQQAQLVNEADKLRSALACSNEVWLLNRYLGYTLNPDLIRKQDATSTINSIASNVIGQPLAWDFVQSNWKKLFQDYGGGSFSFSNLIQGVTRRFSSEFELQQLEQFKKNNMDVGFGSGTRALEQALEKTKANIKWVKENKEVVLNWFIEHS

Glutamyl aminopeptidase [5] = target: T1, Glutamyl aminopeptidase; experiment: Inhibition of APA (unknown origin) using GluNA as substrate
Aminopeptidase N [6] = target: T5, Aminopeptidase N; experiment: Inhibition of pig APN
Aminopeptidase N [7] = target: T5, Aminopeptidase N; experiment: Inhibition of APN in porcine kidney microsomes using L-leucine-p-nitroanilide as substrate preincubated for 30 mins followed by substrate addition measured after 15 mins by UV-visible spectrophotometric method
[8] = target: 72 kDa type IV collagenase (Homo sapiens, UniProt P08253); experiment: Inhibition of recombinant human MMP2 expressed in Escherichia coli preincubated for 30 mins followed by succinylated gelatin substrate addition measured after 60 mins
Sequence of 72 kDa type IV collagenase (P08253 whole entry): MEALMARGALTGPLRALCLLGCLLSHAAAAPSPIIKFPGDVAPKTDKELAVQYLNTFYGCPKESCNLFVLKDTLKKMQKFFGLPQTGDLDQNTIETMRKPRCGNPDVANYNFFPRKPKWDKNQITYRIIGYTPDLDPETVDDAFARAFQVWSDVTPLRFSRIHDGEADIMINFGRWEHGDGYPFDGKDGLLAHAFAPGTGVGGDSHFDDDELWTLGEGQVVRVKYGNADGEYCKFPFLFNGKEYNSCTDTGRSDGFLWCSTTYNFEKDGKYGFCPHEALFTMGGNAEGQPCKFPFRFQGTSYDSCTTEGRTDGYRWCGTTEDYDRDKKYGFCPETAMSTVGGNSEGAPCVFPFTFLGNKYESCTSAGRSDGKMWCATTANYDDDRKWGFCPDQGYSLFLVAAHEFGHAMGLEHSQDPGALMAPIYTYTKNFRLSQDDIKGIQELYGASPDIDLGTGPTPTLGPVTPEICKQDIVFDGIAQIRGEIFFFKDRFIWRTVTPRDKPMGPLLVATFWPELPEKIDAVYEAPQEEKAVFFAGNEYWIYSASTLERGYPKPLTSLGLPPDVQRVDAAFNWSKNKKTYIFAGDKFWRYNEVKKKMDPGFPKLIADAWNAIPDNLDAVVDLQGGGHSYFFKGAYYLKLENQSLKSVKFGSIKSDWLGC

HL-60 [9] = experiment: Antiproliferative activity against human HL60 cells after 48 hrs by MTT assay; format: functional, cell-based; details: HL-60, 48 h
SK-OV-3 = experiment: Antiproliferative activity against human SKOV3 cells after 48 hrs by MTT assay; format: functional, cell-based; details: SK-OV-3, 48 h
Aminopeptidase N [10] = target: T5, Aminopeptidase N; experiment: Inhibition of APN in porcine kidney microsomes using L-leucine-p-nitroanilide as substrate preincubated for 30 mins followed by substrate addition by UV-visible spectrophotometric method
HL-60 [11] = experiment: Antiproliferative activity against human HL60 cells after 72 hrs by MTT assay; format: functional, cell-based; details: HL-60, 72 h
Aminopeptidase N [12] = target: T5, Aminopeptidase N; experiment: Inhibition of APN in porcine kidney using Ala-betaNA as substrate preincubated for 10 mins followed by substrate addition measured after 30 mins by fluorescence spectrofluorometric method
[13] = target: T6, Leukotriene A-4 hydrolase (Homo sapiens, UniProt P09960); experiment: Inhibition of full-length recombinant C-terminal FLAG-tagged human leukotriene A4 hydrolase expressed in baculovirus-infected insect cells using Arg-AMC as substrate after 1 hr by fluorescence assay
T6 sequence (P09960 whole entry): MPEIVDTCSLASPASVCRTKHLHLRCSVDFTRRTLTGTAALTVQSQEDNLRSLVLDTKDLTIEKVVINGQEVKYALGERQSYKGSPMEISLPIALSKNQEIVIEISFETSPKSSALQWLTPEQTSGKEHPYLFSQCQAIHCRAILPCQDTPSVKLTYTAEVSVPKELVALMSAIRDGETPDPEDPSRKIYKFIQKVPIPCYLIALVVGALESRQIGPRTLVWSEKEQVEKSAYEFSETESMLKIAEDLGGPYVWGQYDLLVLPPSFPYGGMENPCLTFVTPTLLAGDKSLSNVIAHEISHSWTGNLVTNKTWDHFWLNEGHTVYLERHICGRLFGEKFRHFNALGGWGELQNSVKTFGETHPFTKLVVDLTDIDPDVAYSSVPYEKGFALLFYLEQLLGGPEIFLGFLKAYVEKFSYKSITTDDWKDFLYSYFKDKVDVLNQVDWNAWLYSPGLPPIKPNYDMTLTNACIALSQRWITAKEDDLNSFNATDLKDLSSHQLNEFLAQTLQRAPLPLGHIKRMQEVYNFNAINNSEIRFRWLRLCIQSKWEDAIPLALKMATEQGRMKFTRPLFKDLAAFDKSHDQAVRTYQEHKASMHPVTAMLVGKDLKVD

Cytosol aminopeptidase = target: T7, Cytosol aminopeptidase (Sus scrofa, UniProt P28839); experiment: Inhibition of porcine kidney leucine aminopeptidase using LGG as substrate after 90 mins
T7 sequence (P28839 whole entry): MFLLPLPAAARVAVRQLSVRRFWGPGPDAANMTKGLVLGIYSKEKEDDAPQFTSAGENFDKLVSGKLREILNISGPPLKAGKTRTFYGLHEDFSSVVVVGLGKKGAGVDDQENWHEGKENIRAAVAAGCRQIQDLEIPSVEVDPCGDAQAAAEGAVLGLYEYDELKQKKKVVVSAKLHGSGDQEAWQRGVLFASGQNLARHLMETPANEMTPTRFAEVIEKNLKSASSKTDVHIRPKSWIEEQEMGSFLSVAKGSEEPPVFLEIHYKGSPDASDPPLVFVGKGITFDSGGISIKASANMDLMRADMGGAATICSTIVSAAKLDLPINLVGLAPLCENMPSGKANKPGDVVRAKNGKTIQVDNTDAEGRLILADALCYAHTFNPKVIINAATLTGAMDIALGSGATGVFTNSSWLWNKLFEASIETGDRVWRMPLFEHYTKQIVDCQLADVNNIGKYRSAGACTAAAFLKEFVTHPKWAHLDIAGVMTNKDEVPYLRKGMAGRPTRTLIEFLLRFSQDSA

[14] = Antiproliferative activity against human ES2 cells over-expressing APN after 48 hrs by MTT assay; format: functional, cell-based; details: ES-2, 48 h
A549 = experiment: Antiproliferative activity against human A549 cells over-expressing APN after 48 hrs by MTT assay; format: functional, cell-based; details: A549, 48 h
MDA-MB-231 = experiment: Antiproliferative activity against human MDA-MB-231 cells after 48 hrs by MTT assay; format: functional, cell-based; details: MDA-MB-231, 48 h
Aminopeptidase N [15] = target: T3, Aminopeptidase N; experiment: Competitive inhibition of aminopeptidase-M (unknown origin)
[16] = target: T8, Cytosol aminopeptidase (Sus scrofa) (UniProt P28839); experiment: Potency index, ratio of bestatin IC50 to compound IC50 for porcine kidney leucine aminopeptidase
T8 sequence (whole entry): T7 sequence (P28839 whole entry)

[17] = Selectivity ratio of IC50 for APN (unknown origin) to IC50 for porcine kidney leucine aminopeptidase

T1 sequence (Q07075 whole entry): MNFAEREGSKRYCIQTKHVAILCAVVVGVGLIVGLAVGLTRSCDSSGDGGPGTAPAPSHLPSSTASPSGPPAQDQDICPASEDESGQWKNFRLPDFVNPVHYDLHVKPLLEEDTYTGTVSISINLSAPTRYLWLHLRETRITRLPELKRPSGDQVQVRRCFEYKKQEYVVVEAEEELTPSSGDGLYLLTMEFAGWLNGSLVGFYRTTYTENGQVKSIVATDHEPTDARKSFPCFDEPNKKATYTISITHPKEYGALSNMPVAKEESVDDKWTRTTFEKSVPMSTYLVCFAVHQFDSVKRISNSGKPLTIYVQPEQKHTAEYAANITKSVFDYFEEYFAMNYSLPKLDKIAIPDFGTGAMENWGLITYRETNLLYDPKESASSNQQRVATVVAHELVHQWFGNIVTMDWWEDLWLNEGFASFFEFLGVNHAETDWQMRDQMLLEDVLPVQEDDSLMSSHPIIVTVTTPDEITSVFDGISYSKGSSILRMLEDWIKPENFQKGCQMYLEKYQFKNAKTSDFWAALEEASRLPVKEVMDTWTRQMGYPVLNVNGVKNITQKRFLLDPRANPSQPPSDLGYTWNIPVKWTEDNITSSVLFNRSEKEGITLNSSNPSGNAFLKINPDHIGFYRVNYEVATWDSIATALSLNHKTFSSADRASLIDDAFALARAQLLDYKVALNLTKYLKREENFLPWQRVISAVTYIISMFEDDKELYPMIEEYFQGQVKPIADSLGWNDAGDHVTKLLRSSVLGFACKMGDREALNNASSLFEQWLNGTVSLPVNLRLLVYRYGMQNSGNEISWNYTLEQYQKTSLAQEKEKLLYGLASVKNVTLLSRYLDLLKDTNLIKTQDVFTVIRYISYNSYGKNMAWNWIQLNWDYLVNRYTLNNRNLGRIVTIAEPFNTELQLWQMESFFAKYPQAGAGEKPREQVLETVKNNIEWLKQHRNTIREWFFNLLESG

SMILES: CC(C)C[C@H](NC(=O)[C@@H](O)[C@H](N)Cc1ccccc1)C(=O)O [UBENIMEX]
- solubility [2]: 35.7 mM (≈ 11 mg/mL)

SMILES: C[C@@](Cc1ccccc1)(NC(=O)[C@H](Cc1ccccc1)CP(=O)(O)C(N)Cc1ccccc1)C(=O)O (stereo partly drawn)
- Ki (Aminopeptidase N [4]): 1.5 nM
- Ki (Glutamyl aminopeptidase [5]): 40000 nM

SMILES: Cc1ccc(NC(=O)CN2C(=O)CC[C@H](NC(=O)C(N)Cc3ccccc3)C2=O)c(C)c1 (stereo partly drawn)
- IC50 (Aminopeptidase N [10]): 5000 nM
- IC50 (HL-60 [11]): 1970 nM

SMILES: CC[C@H](C)[C@H](NC(=O)C(S)C(N)CCC(=O)O)C(=O)N[C@@H](CC(=O)O)C(=O)O (stereo partly drawn)
- Ki (Glutamyl aminopeptidase [1]): 13 nM
- Ki (Aminopeptidase N [12]): 120 nM

SMILES: CC(N)B1OC(C)(C)C(C)(C)O1 (stereo not drawn)
- IC50 (Aminopeptidase N [3]): 40 nM

SMILES: C(=C1/c2ccccc2-c2c1ccc1ccccc21)/c1cc2c3c(cccc3c1)-c1ccccc1-2
- Ki (Aminopeptidase N [6]): 1630 nM

SMILES: CC(N)P(=O)(O)C[C@@H](Cc1ccccc1)C(=O)N[C@@](C)(Cc1ccccc1)C(=O)O (stereo partly drawn)
- Ki (Aminopeptidase N [4]): 0.6 nM
- Ki (Glutamyl aminopeptidase [5]): 130 nM

SMILES: NC1COc2ccccc2CC1=O (stereo not drawn)
- Ki (Aminopeptidase N [6]): 1000 nM

SMILES: CC(C)CC(NC(=O)C(O)C(N)Cc1ccccc1)C(=O)NC(CO)C(=O)NCc1ccccc1 (stereo not drawn)
- solubility [2]: 85.2 mM (≈ 41.3 mg/mL)
- IC50 (Aminopeptidase N [10]): 7200 nM
- IC50 [14]: 12600 nM
- IC50 (A549): 36000 nM
- IC50 (MDA-MB-231): 260000 nM

SMILES: CCCCC[C@H](CC(=O)NO)C(=O)N[C@H](C(=O)N1CCC[C@H]1CO)C(C)C [ACTINONIN]
- IC50 (Aminopeptidase N [15]): 400 nM
- Ki (Aminopeptidase N [15]): 170 nM

SMILES: CC(C)C[C@H](C(=O)N[C@H](C(=O)OC1CCCC1)c1ccccc1)[C@H](O)C(=O)NO
- IC50 (Cytosol aminopeptidase): 100 nM
- Ratio IC50 [16]: 300
- Ratio IC50 [17]: 2
- IC50 (Aminopeptidase N [3]): 220 nM

Second part, led by results:

- Ki (Glutamyl aminopeptidase [1]): 17200 nM
- Ki (Aminopeptidase B): 1000 nM
SMILES: CSCCC(N)CS (stereo not drawn)
- Activity (Mus musculus): >220%

- IC50 (Aminopeptidase N [3]): 25 nM
SMILES: CC(C)CC(N)B1OC(C)(C)C(C)(C)O1 (stereo not drawn)

- Ki (Leucine aminopeptidase): 22 nM
SMILES: CC(C)C[C@@H](N)CS

- Ki (Aminopeptidase N [6]): 2900 nM
SMILES: N#Cc1cc(Cc2ccc3c(ccc4ccccc43)c2C#N)cc2c1ccc1ccccc12

- IC50 (Aminopeptidase N [7]): 12200 nM
- IC50 [8]: 203000 nM
- IC50 (HL-60 [9]): 170 nM
- IC50 (SK-OV-3): 380 nM
SMILES: CC(C)C[C@@H](NC(=O)[C@H](Cc1ccccc1)NC(=O)[C@@H](O)CN)C(=O)O

- Ki (Aminopeptidase N [6]): 1950 nM
SMILES: Cc1ccc(C(=O)NN/C(=N/S(=O)(=O)c2ccc(-n3nc(C(F)(F)F)cc3-c3cccs3)cc2)N2CCCC2)cc1

- IC50 [13]: 8 nM
- IC50 (Cytosol aminopeptidase): 30 nM
SMILES: CC(C)C[C@H](C(=O)N[C@H](C(=O)O)c1ccccc1)[C@H](O)C(=O)NO

- IC50 (Aminopeptidase N [7]): 2510 nM
SMILES: CC(C)C[C@@H](NC(=O)[C@H](Cc1ccc(O)cc1)NC(=O)[C@@H](O)CN)C(=O)O

- IC50 (Aminopeptidase N [3]): 20 nM
SMILES: CC1(C)OB(C(N)Cc2ccccc2)OC1(C)C (stereo not drawn)
